We go through three compounds from ChEMBL document CHEMBL3576782, “Bacillusin A, an Antibacterial Macrodiolide from Bacillus amyloliquefaciens AP183” (J Nat Prod, 2015).

Series [1] deals with Staphylococcus aureus. Description: Bactericidal activity against methicillin-resistant Staphylococcus aureus ATCC 33591 using fresh sample in DMSO at 100 ug/ml after 24 to 48 hrs by CLSI method. In kind it is functional, organism-based.
Series [2] relates to Enterococcus faecalis. The experiment in a line: Bactericidal activity against Enterococcus faecalis ATCC 51299 using fresh sample in DMSO after 24 to 48 hrs by CLSI method. In kind it is functional.
The test system of series [3] is Enterococcus faecalis. Description: Bactericidal activity against Enterococcus faecalis ATCC 29212 using fresh sample in DMSO after 24 to 48 hrs by CLSI method. In kind it is functional.
Series [4] deals with Staphylococcus aureus. The experiment in a line: Antibacterial activity against methicillin-resistant Staphylococcus aureus ATCC 33591 assessed as growth inhibition using fresh sample in DMSO at 100 ug/ml by CLSI method. Type of series: functional, organism-based.
Series [5] deals with Staphylococcus aureus. The experiment in a line: Bactericidal activity against Staphylococcus aureus ATCC 29213 using fresh sample in DMSO after 24 to 48 hrs by CLSI method. Type of series: functional.
Series [6] relates to Enterococcus faecalis. Description: Antibacterial activity against Enterococcus faecalis ATCC 51299 assessed as growth inhibition using fresh sample in DMSO by CLSI method. In kind it is functional, organism-based.
Series [7] relates to Staphylococcus aureus. The experiment in a line: Antibacterial activity against methicillin-resistant Staphylococcus aureus EAMC30 assessed as growth inhibition using fresh sample in DMSO by CLSI method. In kind it is functional, organism-based.
Series [8] relates to Staphylococcus aureus. The experiment in a line: Antibacterial activity against Staphylococcus aureus ATCC 29213 assessed as growth inhibition using fresh sample in DMSO by CLSI method. In kind it is functional, organism-based.
Series [9] deals with Enterococcus faecalis. Description: Antibacterial activity against Enterococcus faecalis ATCC 29212 assessed as growth inhibition using fresh sample in DMSO by CLSI method. Type of series: functional, organism-based.
In series [10] the test system is Staphylococcus aureus. Description: Bactericidal activity against methicillin-resistant Staphylococcus aureus ATCC 33591 using fresh sample in DMSO after 24 to 48 hrs by CLSI method. Type of series: functional.
The test system of series [11] is Staphylococcus aureus. Description: Antibacterial activity against methicillin-resistant Staphylococcus aureus ATCC 33591 assessed as growth inhibition using fresh sample in DMSO by CLSI method. In kind it is functional, organism-based.
Series [12] deals with Enterococcus faecalis. Description: Bactericidal activity against Enterococcus faecalis ATCC 51299 using fresh sample in DMSO at 100 ug/ml after 24 to 48 hrs by CLSI method. In kind it is functional, organism-based.
In series [13] the test system is Staphylococcus aureus. The experiment in a line: Bactericidal activity against methicillin-resistant Staphylococcus aureus EAMC30 using fresh sample in DMSO after 24 to 48 hrs by CLSI method. Type of series: functional.
The test system of series [14] is Enterococcus faecium. Description: Bactericidal activity against vancomycin-resistant Enterococcus faecium ATCC 700221 using fresh sample in DMSO at 20 ug/ml after 24 to 48 hrs by CLSI method. Type of series: functional, organism-based.
The test system of series [15] is Enterococcus faecium. Description: Antibacterial activity against vancomycin-resistant Enterococcus faecium ATCC 700221 assessed as growth inhibition using fresh sample in DMSO by CLSI method. In kind it is functional, organism-based.
Series [16] is described as follows: Chemical stability in acetonitrile after 1 week by LC-MS analysis. Type of series: physicochemical. The conditions noted are these: 168 h.
For a further series, the system named is Candida albicans. Description: Antifungal activity against Candida albicans ATCC 90028 at 20 ug/ml by CLSI method. Type of series: functional, organism-based.

≈ marks a conversion by molar mass, not a printed value. Calls of active or inactive are those of the source.

For the compound `COc1cccc(OC)c1C(=O)N[C@@H]1C(=O)N2[C@@H]1SC(C)(C)[C@@H]2C(=O)O` [METHICILLIN], the outcome with Staphylococcus aureus [1] was inactive. Moreover, the MBC against Enterococcus faecalis [2] amounted to 50 µg/mL (≈ 131 µM); with Enterococcus faecalis [3], 50 µg/mL (≈ 131 µM); with Staphylococcus aureus [5], 12.5 µg/mL (≈ 32.9 µM). In addition, the “growth inhibition (GI)” value in the series on Staphylococcus aureus [4] is “inactive”. Besides, the IC50 in the series on Enterococcus faecalis [6] amounted to 14.2 µg/mL (≈ 37.3 µM); in the series on Staphylococcus aureus [7], 10.1 µg/mL (≈ 26.5 µM); with Enterococcus faecalis [9], 15.3 µg/mL (≈ 40.2 µM). The MIC came to 50 µg/mL (≈ 131 µM) in the series on Enterococcus faecalis [6], 50 µg/mL (≈ 131 µM) in the series on Staphylococcus aureus [7], 3.1 µg/mL (≈ 8.15 µM) in the series with Staphylococcus aureus [8] and 25 µg/mL (≈ 65.7 µM) in the series with Enterococcus faecalis [9].

As to `CN[C@H](CC(C)C)C(=O)N[C@H]1C(=O)N[C@@H](CC(N)=O)C(=O)N[C@H]2C(=O)N[C@H]3C(=O)N[C@H](C(=O)N[C@H](C(=O)O)c4cc(O)cc(O)c4-c4cc3ccc4O)[C@H](O)c3ccc(c(Cl)c3)Oc3cc2cc(c3O[C@@H]2O[C@H](CO)[C@@H](O)[C@H](O)[C@H]2O[C@H]2C[C@](C)(N)[C@H](O)[C@H](C)O2)Oc2ccc(cc2Cl)[C@H]1O` [VANCOMYCIN], the MBC with Staphylococcus aureus [10] came out at 1.6 µg/mL (≈ 1.1 µM); in the series on Enterococcus faecalis [3] it was 50 µg/mL (≈ 34.5 µM); in the series with Staphylococcus aureus [5] it was 50 µg/mL (≈ 34.5 µM); against Staphylococcus aureus [13], 0.4 µg/mL (≈ 0.276 µM). Moreover, the IC50 in the series on Staphylococcus aureus [11] came to 0.8 µg/mL (≈ 0.552 µM); in the series with Enterococcus faecalis [6], 3.4 µg/mL (≈ 2.35 µM); in the series with Staphylococcus aureus [7] it was 0.2 µg/mL (≈ 0.138 µM); in the series with Staphylococcus aureus [8] it was 0.7 µg/mL (≈ 0.483 µM); in the series on Enterococcus faecalis [9] it was 1 µg/mL (≈ 0.69 µM). Also, the MIC in the series on Staphylococcus aureus [11] worked out at 1.6 µg/mL (≈ 1.1 µM); in the series with Enterococcus faecalis [6] it was 6.2 µg/mL (≈ 4.28 µM); with Staphylococcus aureus [7] it was 0.4 µg/mL (≈ 0.276 µM); in the series with Staphylococcus aureus [8], 1.6 µg/mL (≈ 1.1 µM); with Enterococcus faecalis [9], 1.6 µg/mL (≈ 1.1 µM). The result in the series with Enterococcus faecalis [12] was inactive.

Turning to `COc1cc(O)cc2c1C(=O)OC(CC(C)O)CC(O)C/C=C/C(O)CC(O)CC(O)C/C(C)=C/C=C/C=C/C=C/C=C/c1cc(O)cc(OC)c1C(=O)OC(CC(C)O)CC(O)C/C=C/C(O)CC(O)CC(O)C/C(C)=C/C=C/C=C/C=C/C=C/2` (configuration not stated), the result with Enterococcus faecium [14] and with Candida albicans was inactive. Also, the MBC came out at 1.2 µg/mL (≈ 1 µM) in the series with Staphylococcus aureus [10]; 1.2 µg/mL (≈ 1 µM) against Enterococcus faecalis [2]; 2.5 µg/mL (≈ 2.09 µM) in the series on Enterococcus faecalis [3]; 2.5 µg/mL (≈ 2.09 µM) in the series with Staphylococcus aureus [5]; 0.6 µg/mL (≈ 0.501 µM) in the series with Staphylococcus aureus [13]. Moreover, the half-maximal inhibitory concentration (IC50) in the series with Staphylococcus aureus [11] is 0.04 µg/mL (≈ 0.0334 µM); with Enterococcus faecium [15], 0.1 µg/mL (≈ 0.0835 µM); in the series on Enterococcus faecalis [6], 0.2 µg/mL (≈ 0.167 µM); with Staphylococcus aureus [7], below 0.02 µg/mL; in the series with Staphylococcus aureus [8], 0.04 µg/mL (≈ 0.0334 µM); in the series on Enterococcus faecalis [9] it was 0.2 µg/mL (≈ 0.167 µM). In addition, the MIC in the series with Staphylococcus aureus [11] was 1.2 µg/mL (≈ 1 µM); with Enterococcus faecium [15], 0.6 µg/mL (≈ 0.501 µM); with Enterococcus faecalis [6] it was 0.6 µg/mL (≈ 0.501 µM); with Staphylococcus aureus [7], 0.6 µg/mL (≈ 0.501 µM); in the series on Staphylococcus aureus [8], 1.2 µg/mL (≈ 1 µM); with Enterococcus faecalis [9], 0.6 µg/mL (≈ 0.501 µM). Moreover, the Stability result in [16] is “Unstable”.

One may read the MBC as the lowest tested concentration that kills the bacteria rather than only halting them. Read a low MBC as greater bactericidal potency. One may read the IC50 as the concentration that inhibits the measured activity by half. One may read the MIC as the smallest concentration in the dilution series that meets the test's criterion for growth inhibition.
